Structures can show the parent of a compound that is named as a salt. Where two headings read alike, the source gives them in different places.
Columns and labels:
[1] = tested on: inflammatory cells in the BALF; assay: Asthma model: BALF cellularity and cell differentials; type: in vivo, Balb/c mice; settings: i.t. HCl or HOAc, i.p. NaOH, every other day x3; day 3 after final challenge; saline 3.06×10^6
[2] = tested on: CD4 T cells in BALF and MLN; settings: for Treg cells, % of total CD4 T cells, BALF: saline 7.46%; for Treg cells, % of total CD4 T cells, MLN: saline 11.80%
Experimental: (92, 93). […] For challenge, 2× concentrated solution was prepared by mixing 100 μg OVA protein and 1 μg […] peptide (Molecular Resources, Fort Collins, Colo., USA) in 30 μl saline per mouse, and kept on ice. Immediately before i.t. (intratracheal) injection the 30 μl 2×OVA solution was mixed with equal volume of 2× treatment solution (350 mM HOAc or HCl in saline) and instilled into the trachea of the mouse. The mice were challenged every other day for a total of 3 times.
The total mixture (60 μl) was instilled into the trachea of the mouse. The mice were treated every other day for a total of 3 times.
(§1) Cells were washed 3 times with PBS then stained with Zombie viability dyes at room temperature for 20 minutes. At the end of incubation, 10% volume of FBS was added to absorb excess Zombie dyes. After washes, the cells were stained with conjugated antibodies against surface antigens on ice. As specified in some experiments, the cells were subsequently stained with fluorochrome-conjugated Avidin. For Annexin V staining, cells were washed twice with plain PBS and once with Annexin V binging buffer (10 mM HEPES, pH7.4, 140 mM NaCl, 2.5 mM CaCl2)) after surface antigen staining, and incubated with fluorochrome-conjugated Annexin V in Annexin V binding buffer for 15 min at room temperature. The cells were washed twice in Annexin V binding buffer and resuspended in Annexin V binding buffer. 7-AAD was added to the cells before analyzed by flow cytometry. For Ki-67 and Foxp3 staining, lymphocytes (after Zombie dye and surface antigen staining) or tumor cells (without surface antigen staining) were fixed and permeabilized using Foxp3 staining buffer kit, then stained with PE-conjugated anti-mouse or human Ki-67 antibodies. (Biolegend, San Diego, Calif., USA). Stained and unstained cells were analyzed on Accuri C6 Flow Cytomer (Accuri Cytometers, Inc., Ann Arbor, Mich.), FACS Canto (BD Bioscience, San Jose, Calif., USA) and Attune™ cytometer (Invitrogen, Carlsbad, Calif.). Data analyses were carried out using FlowJo X.

primary lymph node cells = assay: In vitro treatment of primary lymph node cells in FBS, Ki-67; type: cell-based, mouse; settings: 8.75 mM in FBS, 37° C., 5 hours
Experimental: (§2) For studies of the effects of pH modifier on proliferating cells, primary thymocytes or lymph node cells (4×10^6 cells/ml) were incubated in FBS comprising 10% of saline or 87.5 mM HCl, HOAc or NaOH prepared in saline in 37° C. water bath for 5 hours before analyses. The tumor cells (2×10^6 cells/ml) were incubated in FBS comprising 10% saline or 87.5 mM HCl, HOAc, or NaOH prepared in saline in 37° C. water bath for 3-5 hours.
as §1
Thus, to assess the full potentials of the pH modifiers, in vitro experiments were carried out, in which primary lymph node cells were treated with saline or saline plus the pH modifiers in 100% FBS in 37° C. water bath. Such in vitro culture systems were designed to be free of interference by pH buffering agents in common tissue culture system. The final concentration of the pH modifiers in the in vitro cultures was set to be 8.75 mM.

Jurkat cells = tested on: Jurkat cells
Experimental: Jurkat and Raji tumor cell lines were maintained in Complete RPMI-1640 Medium (RPMI-1640 plus 1× GlutaMAX, 100 U/ml Pen-Strep (Gibco Life Technologies, Grand Island, N.Y., USA), and 5% heat-inactivated fetal bovine serum (FBS) (Atlanta Biologicals, Flowery Branch, Ga., USA)) at 37° C. and 5% CO2. The tumor cells were washed 3 times with saline plus 1% FBS before in vitro treatments with saline or saline plus pH modifiers.
as §2
as §1, with “For Ki-67 and Foxp3 staining, lymphocytes (after Zombie dye and surface antigen staining) or tumor cells (without surface antigen staining) were fixed and permeabilized using Foxp3 staining buffer kit, then stained with PE-conjugated anti-mouse or human Ki-67 antibodies. (Biolegend, San Diego, Calif., USA).” left out, “Data analyses were carried out using FlowJo X.” left out

[3] = tested on: proliferating cells in the intestinal villi; assay: Ki-67 immunohistochemistry of intestines; type: in vivo, mice; settings: i.p. x3, one day after third dose
Experimental: (97). Briefly, the tissue sections were first deparaffinized and rehydrated.
Mice were i.p. treated with saline or saline plus HCl, HOAc or NaOH every other day for a total of 3 doses. One day after the third dose, mice were sacrificed, and tissue sections of the intestines were analyzed by immunohistochemistry staining of Ki-67 with hematoxylin counter staining.

thymocytes = assay: Asthma model: thymus and thymocyte populations in vivo; parameters: species or system mice; settings: for size of the thymus vs saline (gross examination): 3 days after final challenge and treatment; for percentage of Ki-67hi total thymocytes: saline 22.7%; for percentage of DP (CD4+CD8+) thymocyte subpopulation: saline 69.7%
Experimental: as §1
In the asthma model, OVA sensitized mice were challenged with OVA by i.t. injection every other day for 3 times. The mice received i.t. treatment with saline, HCl or HOAc at the same time as challenge, or i.p. treatment with NaOH 1 hour after the challenge. Thymuses were harvested 3 days after the final challenge and treatment. […] (FIG. 20a). […] The thymocytes can be divided into Ki-67 high, low and negative populations. (FIG. 20b).

[4] = tested on: C57BL/6 mice fed high fat diet; assay: High fat diet obesity model; type: in vivo; settings: for average reduction of intestinal length vs saline: entire intestines; for intestines vs saline (gross examination): from end of stomach to anus; for sizes of fat pads vs saline: gross; for loss of body weight: i.p. every other day, four doses, 3 days after final treatments, saline about 3%; for fold reduction of fat/bodyweight ratio vs saline / average fat/bodyweight ratio: i.p. four doses; for average fat/bodyweight ratio: saline 0.135
Experimental: The obesity model was similar to those previously described. (95, 96). Female C57BL/6 mice of 4 weeks age were acclimated at CRADL for 1 week. After the acclimation, mice were switched to Gamma-irradiated high fat diet (Research Diets, New Brunswick, N.J., USA) (60% calories from fat). After 4 weeks of high fat diet, the mice were switched back to regular diet, and treated with i.p. injection of saline or saline plus HCl or HOAc. The bodyweight of each mouse was recorded before each treatment, and at the end of the experiment.
In the obesity model of Example 10, after fed with high fat diet for 4 weeks, mice were weighed to record total body weight. The mice were switched to regular diet and randomly divided into groups to receive i.p. treatments with saline or saline plus HCl, HOAc or NaOH. The mice continued to receive i.p. treatments on every other day for 3 additional doses. Four days after the final treatments, mice were sacrificed, their total body weights were measured, fat pads, and internal organs were collected, weighed, and analyzed.
Obesity was induced in C57BL/6 mice by feeding young (5 weeks old) female mice with high fat diet for 4 weeks. The mice were then switched to normal diet and randomly divided into groups to receive i.p. treatments with saline or saline plus HCl, HOAc or NaOH every other day for a total of four doses. The mice were analyzed 3 days after the final treatments.

[5] = tested on: mucus secretion in the lungs; assay: Asthma model: PAS staining of lung tissue; settings: i.t. HOAc or HCl; i.p. NaOH
[6] = FBS with 10% of 87.5 mM modifier, 37° C., 3-5 hours, saline 73.4%

| SMILES | total inflammatory cells in the BALF (average) [1] | Treg cells, % of total CD4 T cells, BALF ([2]; BALF) [%] | Treg cells, % of total CD4 T cells, MLN [2] [%] | Ki-67+ cells in live total lymphocytes, CD4, CD8 T cells and B cells (primary lymph node cells) | Ki-67+ cells in the intestinal villi (IHC) [3] | Ki-67 staining intensity in intestines [3] | size of the thymus vs saline (gross examination) (thymocytes) | percentage of Ki-67hi total thymocytes (thymocytes) [%] | percentage of DP (CD4+CD8+) thymocyte subpopulation (thymocytes) [%] | average reduction of intestinal length vs saline [4] | intestines vs saline (gross examination) [4] | sizes of fat pads vs saline [4] | loss of body weight [4] | fold reduction of fat/bodyweight ratio vs saline [4] [fold] | average fat/bodyweight ratio [4] | mucus secretion (PAS staining) in the lungs [5] | viability (live cells) of Jurkat cells (Jurkat cells; [6]) [%] | further results |
| --- | --- | --- | --- | --- | --- | --- | --- | --- | --- | --- | --- | --- | --- | --- | --- | --- | --- | --- |
| CC(=O)O [HOAc, acetic acid] | 9.01×10^5 per mouse | 7.18 | 11.53 | almost eliminated all Ki-67^+ | more Ki-67^+ cells in the intestinal villi of saline- or NaOH-treated mice than the HCl- or HOAc-treated mice | stronger than those of the HCl- or HOAc-treated mice | dramatically smaller | 15.4 | 43.8 | ~12% | drastically shortened | much smaller | ~15% | 3 | 0.045 | only faint PAS staining |  | viability (live cells) of Jurkat cells (Jurkat cells; human, 8.75 mM): 34.3%; decrease of total numbers of thymocytes vs saline (thymocytes; i.t. HOAc): ~90% |
| [Na+].[OH-] [NaOH, sodium hydroxide] | 2.18×10^6 per mouse | 6.97 | 11.46 |  | more Ki-67^+ cells in the intestinal villi of saline- or NaOH-treated mice than the HCl- or HOAc-treated mice | strongest | similar | 31.7 | 77.6 | about 2% | only slightly shortened | somewhat reduced | about 17% |  | 0.106 | no reduction of mucus secretion or PAS staining | 70.4 | CD44+ cells in Foxp3- CD4 T cells, BALF ([2]; BALF): 80.6%; percentages of Ki-67+ cells in CD4 T cells and B cells vs saline (primary lymph node cells): nearly tripled; percentages of Ki-67+ cells in total lymphocytes and CD8 T cells vs saline (primary lymph node cells): more than tripled; increase of total numbers of thymocytes vs saline (thymocytes; i.p. NaOH): about 28% |
| Cl [HCl, hydrochloric acid] | 1.07×10^6 per mouse | 4.45 | 9.12 | almost eliminated all Ki-67^+ | more Ki-67^+ cells in the intestinal villi of saline- or NaOH-treated mice than the HCl- or HOAc-treated mice | stronger than those of the HCl- or HOAc-treated mice | dramatically smaller |  |  | about 31% | drastically shortened | much smaller | about 25% | 5 | 0.027 | only faint PAS staining | 22.1 |  |
